Data taken from EP4122463A1, “DRUG IN THE FORM OF A COMPLEX OF 3,3'-DIINDOLYLMETHANE WITH Beta-CYCLODEXTRIN” (Kiselev, Vsevolod Ivanovich, priority 2020, dated 2021).

Experiments:
[1] = Solubility of 3,3'-diindolylmethane as a function of concentration of various cyclodextrins; type: physicochemical; settings: solutions of α-, β- and γ-cyclodextrin, figure 2
Description: Solubility of 3,3'-diindolylmethane was investigated as a function of concentration of various cyclodextrins. The following were used in the experiments: • α-cyclodextrin (αCD); • β-cyclodextrin (βCD); • γ-cyclodextrin (γCD).

[2] = Concentration of 3,3'-diindolylmethane in the blood plasma of patients; type: in vivo; settings: DIM dosage 100 mg
Description: (§1) In clinical studies, effectiveness of a water-soluble complex based on cyclodextrins and crystalline 3,3'-diindolylmethane in equal doses was compared. […]

[3] = Clinical comparison of effectiveness of water-soluble complexes and crystalline DIM in equal doses; type: in vivo; settings: all studied groups of patients
Description: as §1

[4] = cited from earlier work

## c1ccc2c(Cc3c[nH]c4ccccc34)c[nH]c2c1 [DIM crystalline, 3,3'-diindolylmethane]
[1]
  maximum solubility of 3,3'-diindolylmethane: maximum solubility of 3,3'-diindolylmethane is achieved in combination with β-cyclodextrin (βCD)
[2]
  The concentration of DIM in plasma: less than 30 ng / ml
[3]
  effectiveness (dynamics in patients): absence of such
[4]
  Solubility of 3,3'-diindolylmethane in DMSO: 18-20%
